Key:
HSC1 [1] = assay: relative IC50 (inflection point of fitted dose-response curve, CellTiter-Glo viability, 72 h; top asymptote may be below 50% inhibition); higher = less potent
Summary of the method: (§1)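 Viability of MPNST cell lines and primary human Schwann cells was read as CellTiter-Glo ATP luminescence after 72 h at 37 °C, 5% CO2, in 384-well plates seeded with 750–1000 cells per well. Each compound had been preprinted at five concentrations in 10-fold steps. Signals were scaled between vehicle and positive-control wells, duplicates averaged where present, and fitted with four-parameter logistic curves. Drug sensitivity score and relative IC50 (censored at the top concentration) come from those fits, and percent inhibition is taken at the top concentration.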

HS-PSS [2] = assay: as above
Summary of the method: as §1

ST8814 [3] = assay: as above
Summary of the method: as §1

HS-Sch-2 = assay: as above
Summary of the method: as §1

HSC2 [4] = assay: as above
Summary of the method: as §1

YST-1 = assay: as above
Summary of the method: as §1

HSC1 [5] = assay: relative IC50 (inflection point of fitted dose-response curve, CellTox-Green cytotoxicity, 72 h; top asymptote may be below 50%); higher = less potent
Summary of the method: (§2)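 MPNST cell lines and primary human Schwann cells were grown for 72 h at 37 °C in 384-well plates containing five 10-fold compound dilutions. CellTox-Green, added before seeding at a final 1:1000 dilution, gave fluorescence from DNA released by disrupted cells, and signals were scaled to vehicle and positive-control wells. Curves were fitted with a four-parameter logistic model. Drug sensitivity score and relative IC50 come from these fits, with IC50 censored at the top concentration.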

HS-PSS [6] = assay: as above
Summary of the method: as §2

ST8814 [7] = assay: as above
Summary of the method: as §2

HSC2 [8] = assay: as above
Summary of the method: as §2

STS26T [9] = assay: relative IC50 (inflection point of fitted dose-response curve, CellTiter-Glo viability, 72 h; top asymptote may be below 50% inhibition); higher = less potent
Summary of the method: as §1

S462 = assay: as above
Summary of the method: as §1

STS26T [10] = assay: relative IC50 (inflection point of fitted dose-response curve, CellTox-Green cytotoxicity, 72 h; top asymptote may be below 50%); higher = less potent
Summary of the method: as §2

Compound | relative IC50 (HSC1 [1]) | relative IC50 (HS-PSS [2]) | relative IC50 (ST8814 [3]) | relative IC50 (HS-Sch-2) | relative IC50 (HSC2 [4]) | relative IC50 (YST-1) | relative IC50 (HSC1 [5]) | relative IC50 (HS-PSS [6]) | relative IC50 (ST8814 [7]) | relative IC50 (HSC2 [8]) | relative IC50 (STS26T [9]) | relative IC50 (S462) | relative IC50 (STS26T [10])
CN1CCC(COc2cnc(-c3cccc(Cn4nc(-c5cccc(C#N)c5)ccc4=O)c3)nc2)CC1 | > 1000 nM | > 1000 nM | > 1000 nM | > 1000 nM | > 1000 nM | > 1000 nM | > 1000 nM | > 1000 nM | > 1000 nM | > 1000 nM | – | – | –
CNC(=O)c1ccc(N2C(=S)N(c3ccc(C#N)c(C(F)(F)F)c3)C(=O)C23CCC3)cc1F [RD162] | – | > 10000 nM | – | > 10000 nM | > 10000 nM | > 10000 nM | > 10000 nM | > 10000 nM | > 10000 nM | > 10000 nM | > 10000 nM | > 10000 nM | > 10000 nM
CCN(CC)CCNC(=O)c1c(C)[nH]c(/C=C2\C(=O)Nc3ccc(F)cc32)c1C [Sunitinib] | > 1000 nM | – | – | > 1000 nM | > 1000 nM | > 1000 nM | > 1000 nM | > 1000 nM | > 1000 nM | > 1000 nM | > 1000 nM | – | > 1000 nM
CCC/C=C/C=C/C(=O)O[C@H]1/C(=C/C(=O)OC)C[C@H]2C[C@H]([C@@H](C)O)OC(=O)C[C@H](O)C[C@@H]3C[C@H](OC(C)=O)C(C)(C)[C@](O)(C[C@@H]4C/C(=C/C(=O)OC)C[C@H](/C=C/C(C)(C)[C@]1(O)O2)O4)O3 [Bryostatin 1] | > 100 nM | – | > 100 nM | 0.41 nM | > 100 nM | > 100 nM | > 100 nM | > 100 nM | > 100 nM | > 100 nM | – | – | > 100 nM
Nc1nc(Cl)nc2c1ncn2[C@H]1C[C@H](O)[C@@H](CO)O1 [Cladribine] | 151 nM | 366 nM | – | 351 nM | 174 nM | 321 nM | 350 nM | – | – | 319 nM | 226 nM | – | –
CO[C@H]1C[C@@H]2CC[C@@H](C)[C@@](O)(O2)C(=O)C(=O)N2CCCC[C@H]2C(=O)O[C@H]([C@H](C)C[C@@H]2CC[C@@H](O)[C@H](OC)C2)CC(=O)[C@H](C)/C=C(\C)[C@@H](O)[C@@H](OC)C(=O)[C@H](C)C[C@H](C)/C=C/C=C/C=C/1C [Sirolimus] | – | 3.71 nM | – | 6.38 nM | – | 6.09 nM | > 100 nM | > 100 nM | > 100 nM | > 100 nM | 21.7 nM | > 100 nM | > 100 nM
Nc1ncn([C@H]2C[C@H](O)[C@@H](CO)O2)c(=O)n1 [Decitabine] | – | > 10000 nM | – | 782 nM | 2260 nM | > 10000 nM | > 10000 nM | > 10000 nM | > 10000 nM | > 10000 nM | – | 273 nM | > 10000 nM
COc1cc2ncnc(Nc3ccc(F)c(Cl)c3)c2cc1NC(=O)/C=C/CN1CCCCC1 [Dacomitinib] | – | 144 nM | – | 148 nM | – | > 1000 nM | > 1000 nM | – | > 1000 nM | > 1000 nM | – | – | > 1000 nM
COCC1(CO)C(=O)C2CCN1CC2 (centres undefined) [Prima-1 Met] | 572 nM | – | > 10000 nM | – | 2140 nM | – | > 10000 nM | – | > 10000 nM | > 10000 nM | – | – | > 10000 nM
CCc1c(C(=O)C(N)=O)c2c(OCC(=O)O)cccc2n1Cc1ccccc1 [Varespladib] | – | > 10000 nM | > 10000 nM | > 10000 nM | > 10000 nM | > 10000 nM | > 10000 nM | > 10000 nM | > 10000 nM | > 10000 nM | > 10000 nM | – | > 10000 nM

— the supplement of paper PMC5579334
